Measurements published in paper PMC6085999, “Elucidating the Inhibitory Potential of Designed Peptides Against Amyloid Fibrillation and Amyloid Associated Cytotoxicity” (Frontiers in Chemistry, 2018).
Residues, ends and D or L forms follow the SMILES beside them.

Biological target: T1, Human insulin (HI) amyloid fibrillation (Homo sapiens, UniProt P01308)
T1 construct: Insulin is a covalent dimer of two polypeptide chains (chain A and chain B) having 21 and 30 amino acid residues, respectively
Experiment: ThT fluorescence assay of insulin fibrillation
Type: biochemical
Details: for IC50: 3-parameter dose response fit of normalized ThT intensity at 483 nm vs log [peptide], insulin incubated at 60°C for 72 h, 50 mM acetate buffer pH 2.0, peptide 0-750 μM, triplicates, read-out: IC50 against insulin aggregation; for percent inhibition of aggregation (ThT fluorescence): insulin incubated at 60°C for 72 h with peptide (Supplementary Figure S2), concentration not given
Description: Stock solution of insulin was prepared by dissolving insulin lyophilized powder in 50 mM acetate buffer, pH 2.0, and insulin concentration was determined by measuring absorbance at 276 nm, with the extinction coefficients of […] for 1 mg/ml. Fibrils were prepared by incubating insulin solution at 60°C for 72 h.
ThT stock solution was prepared by dissolving ThT in double distilled water, and the resulting solution was passed through a 0.2 micron millipore filter. The concentration of ThT was determined by measuring absorbance at 412 nm with a molar extinction coefficient of 36,600 M^−1cm^−1. ThT fluorescence assay was carried out on Shimadzu fluorescence spectrophotometer (RF-5301 PC). Insulin samples were incubated with or without peptides; from each set, samples were withdrawn at definite time intervals and mixed with ThT to have the final protein and dye concentration of 20 μM. The ThT was excited at 440 nm, and fluorescence spectra were recorded from 460 to 650 nm. Buffer (pH 2.0) was used for dilution, and spectra were corrected for the respective blanks. All measurements were performed in triplicates. All curves were fitted as described previously (Chaturvedi et al., [2015]).

T1 sequence (P01308 25-54 limits assumed): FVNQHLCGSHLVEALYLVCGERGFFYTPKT
T1 sequence (P01308 90-110 limits assumed): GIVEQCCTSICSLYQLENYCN

## CC[C@H](C)[C@H](NC(=O)[C@@H](N)C(C)C)C(=O)N[C@@H](Cc1ccccc1)C(=O)N[C@@H](Cc1ccc(O)cc1)C(=O)N[C@H](C(=O)O)[C@@H](C)O [Peptide P4, Val-Ile-Phe-Tyr-Thr] (H-VIFYT-OH)
  IC50: 278 µM
  percent inhibition of aggregation (ThT fluorescence): 82%

## CC(C)[C@H](N)C(=O)N[C@H](C(=O)N[C@H](C(=O)N[C@H](C(=O)N[C@H](C(=O)O)C(C)C)C(C)C)C(C)C)C(C)C [Peptide P5, Val-Val-Val-Val-Val] (H-VVVVV-OH)
  IC50: 446 µM
  percent inhibition of aggregation (ThT fluorescence): 56%
